We go through 4 compounds from PMC12799524, “Putative new biomarkers for renal transporter-mediated drug-drug interactions: Characterization as substrates of organic cation transporter 2, multidrug and toxin extrusion protein 1, and other important drug transporters” (Drug Metabolism and Disposition, 2025).

By Km is commonly meant the concentration of substrate that gives half-maximal velocity.

The test system of one data set is human OCT2 and MATE1. Briefly: Intracellular accumulation and transcellular transport in double-transfected MDCK-OCT2-MATE1 monolayers. The format is in vitro ADME. The settings on record: for Intracellular concentration in MDCK-OCT2-MATE1 cells vs MDCK-VC cells: 10 μM basal, 60 minutes. The protocol: (§1) The intracellular accumulation and transcellular, basal to apical transport experiments were performed as previously described in monolayers of polarized single-transfected (MDCK-OCT2, MDCK-MATE1) and double-transfected (MDCK-OCT2-MATE1) MDCK cells, MDCK control cells (MDCK-VC), or Caco-2 cells.[22] In brief, cell monolayers were grown in cell culture inserts on porous membranes. For MDCK-VC, MDCK-OCT2 and Caco-2, 5 × 10^5 cells were used per well; for MDCK-OCT2-MATE1, 6 × 10^5 cells were used, and for MDCK-MATE1, 8 × 10^5 cells were used per well. Cells were grown to confluence for 72 hours, induced with 10 mM sodium butyrate 48 hours after seeding for 24 hours (MDCK only), and subsequently used for transport experiments.
(§2) In general, after the cell culture medium was removed from both sides of the monolayers, cells were washed at 37 °C with transport buffer of the same composition as described in the previous section. Experiments were started by replacing the medium in the basal compartment with medium containing the putative biomarkers or [^3H]-labeled positive control substrates. The pH of the buffer on the basal side was 7.3 and 6.5 on the apical side for MDCK cells, whereas it was 7.3 on either side for Caco-2 cells. Cells were incubated at 37 °C and the buffer from the apical compartment was taken after 60 minutes for MDCK cells and after 240 minutes for Caco-2 cells. In case of Caco-2 cells, endogenous P-gp was inhibited by adding 2 μM of valspodar to the basal compartment. To measure the cellular accumulation of the test compounds, the remaining medium was removed at the end of the incubation period and the cell monolayers were rapidly rinsed 3 times with ice-cold 0.9% NaCl in water. Filters were detached from the chambers and placed into 500 μL of 80% MeOH containing the aforementioned recovery standards to lyse cells for subsequent LC-MS analysis or into 600 μL of 0.2% SDS (control experiments only). In the control experiments, the radioactivity of the collected apical medium and the solubilized cell monolayers and protein concentrations of the cell lysates were measured in the same way as described for the experiments with HEK cells.
(§3) The intracellular background of all 5 compounds in HEK cells at the beginning of the uptake experiments was investigated 48 hours after seeding without incubation with transport buffer (ie, 0 minutes). […] Then, cells were lysed with ice-cold 80% MeOH containing the aforementioned recovery standards. In addition, the impact of a 5-minute incubation period with transport buffer without added substance was investigated.

Another data set has as its target T1, human OAT3 (Homo sapiens, UniProt Q8TCC7).
T1 sequence (Q8TCC7 1-542): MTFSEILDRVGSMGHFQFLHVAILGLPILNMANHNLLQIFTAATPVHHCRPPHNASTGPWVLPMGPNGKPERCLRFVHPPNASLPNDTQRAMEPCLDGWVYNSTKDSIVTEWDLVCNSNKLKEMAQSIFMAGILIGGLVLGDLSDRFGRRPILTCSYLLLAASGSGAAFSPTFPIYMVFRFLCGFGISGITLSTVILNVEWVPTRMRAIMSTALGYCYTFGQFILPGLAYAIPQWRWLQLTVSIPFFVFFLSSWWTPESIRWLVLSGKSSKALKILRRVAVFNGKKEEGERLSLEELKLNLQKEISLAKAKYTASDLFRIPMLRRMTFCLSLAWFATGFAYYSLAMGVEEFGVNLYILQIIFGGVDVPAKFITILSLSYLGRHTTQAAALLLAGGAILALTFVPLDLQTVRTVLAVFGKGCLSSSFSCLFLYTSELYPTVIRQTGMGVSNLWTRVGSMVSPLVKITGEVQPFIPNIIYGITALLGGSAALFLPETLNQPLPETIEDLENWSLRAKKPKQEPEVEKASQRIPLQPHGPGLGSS
Briefly: Uptake assay in HEK-OAT3 vs HEK-VC cells. The settings on record: for In Vitro OAT3 (substrate class): HEK cells.

The target of a further data set is T2, human OCT2 (Homo sapiens, UniProt O15244).
T2 sequence (O15244 1-555): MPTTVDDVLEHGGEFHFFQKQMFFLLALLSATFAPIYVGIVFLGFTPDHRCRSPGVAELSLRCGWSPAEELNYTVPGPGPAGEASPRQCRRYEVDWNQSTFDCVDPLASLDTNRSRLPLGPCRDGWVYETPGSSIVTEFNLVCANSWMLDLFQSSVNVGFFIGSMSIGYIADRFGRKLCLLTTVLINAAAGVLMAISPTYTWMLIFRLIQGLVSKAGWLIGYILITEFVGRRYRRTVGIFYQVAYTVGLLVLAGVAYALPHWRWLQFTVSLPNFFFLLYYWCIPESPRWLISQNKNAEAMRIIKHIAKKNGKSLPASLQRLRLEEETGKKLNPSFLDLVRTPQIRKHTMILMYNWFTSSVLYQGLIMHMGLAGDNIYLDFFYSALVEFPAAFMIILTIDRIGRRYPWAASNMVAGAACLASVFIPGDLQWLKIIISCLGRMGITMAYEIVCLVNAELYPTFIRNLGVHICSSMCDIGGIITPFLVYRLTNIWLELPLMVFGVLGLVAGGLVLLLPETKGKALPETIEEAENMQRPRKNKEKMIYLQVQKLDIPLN
Nature of the data set: Intracellular accumulation and transcellular transport in MDCK-OCT2 monolayers. Set-up: expressed in transfected cells. The format is in vitro ADME. The settings on record: for Intracellular concentration in MDCK-OCT2 cells in comparison to MDCK-VC cells: 10 μM basal, 60 minutes. The protocol:
as §1, §2, §3

The conditions of data set [1]: cited from earlier work.
A further data set concerns the target T3, MATE1 (Homo sapiens, UniProt Q96FL8).
T3 sequence (Q96FL8 1-570): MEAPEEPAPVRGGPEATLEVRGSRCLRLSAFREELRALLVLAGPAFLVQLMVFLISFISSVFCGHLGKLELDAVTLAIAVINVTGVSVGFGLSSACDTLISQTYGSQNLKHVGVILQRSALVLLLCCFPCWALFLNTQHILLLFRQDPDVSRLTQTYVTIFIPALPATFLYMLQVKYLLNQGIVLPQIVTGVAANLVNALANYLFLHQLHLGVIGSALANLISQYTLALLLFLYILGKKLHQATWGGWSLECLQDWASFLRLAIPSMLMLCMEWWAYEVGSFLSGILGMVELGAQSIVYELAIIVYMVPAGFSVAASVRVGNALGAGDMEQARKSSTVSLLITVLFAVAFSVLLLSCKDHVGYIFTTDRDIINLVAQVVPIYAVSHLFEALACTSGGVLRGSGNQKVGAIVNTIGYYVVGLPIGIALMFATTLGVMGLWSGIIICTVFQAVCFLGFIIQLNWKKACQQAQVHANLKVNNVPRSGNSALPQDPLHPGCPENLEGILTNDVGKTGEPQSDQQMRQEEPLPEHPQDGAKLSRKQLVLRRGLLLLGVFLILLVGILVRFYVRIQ
Briefly: Concentration-dependent transport in HEK-MATE1 cells (Km, Vmax). Set-up: expressed in transfected cells; host or cells: HEK293 (HEK-MATE1). The note with it: HEK-MATE1 net uptake; for Vmax for MATE1-mediated uptake: 5 min; for Km at 5 min: human, HEK-MATE1 cells, read-out: Km for MATE1-mediated transport. In kind it is in vitro ADME.

In the next data set the test system is OCT2. The note with it: read-out: Km value for OCT2; ref Ma et al 17; cited from earlier work.
Where [2] appears, read: 60 minutes without added substance.

Experimental for human OAT3: Using both plasmids, stably transfected HEK cells overexpressing human OAT1 or OAT3 were established as described.[24] HEK cell clones with the highest expression of the SLC22A6 or the SLC22A8 mRNA were selected by quantitative reverse-transcription polymerase chain reaction and functionally characterized by standardized uptake assays using PAH (30 μM) or E3S (1 μM) as prototypic substrates for OAT1 (HEK-OAT1) or OAT3 (HEK-OAT3), respectively, as described below.
Uptake assays into HEK cells stably overexpressing transport proteins and their respective VC were performed as previously described with minor modifications.[19] In brief, cells were seeded in poly-D-lysine–coated (0.1 mg/mL) 12-well plates with a density of 7 × 10^5 cells per well. Twenty-four hours after seeding, cells were induced with 10 mM sodium butyrate to enhance protein expression. Transport experiments were performed 48 hours after seeding. Cells were washed once with transport buffer at 37 °C. Afterward, cells were incubated with transport buffer containing (putative) substrates at the desired concentration at 37 °C for 5 minutes. Inhibition of OCT2/MATE1-mediated transport was investigated by adding 50 μM of cimetidine to the above-mentioned transport buffer containing putative substrates. A mixture of unlabeled and [^3H]-labeled substrate was used for control experiments. The buffer for the transport experiments contained 142 mM NaCl, 5 mM KCl, 1 mM K2HPO4, 1.2 mM MgSO4, 1.5 mM CaCl2, 5 mM glucose, and 12.5 mM HEPES. The pH value was set to 7.3, except for HEK-MATE1 cells and their respective VC, in which pH was set to 8.0.
At the end of the incubation period, cells were put on ice, the transport buffer was removed, and cells were rinsed thrice with ice-cold 0.9% NaCl in water. Then, cells were lysed with 700 μL of an ice-cold mixture of MeOH and water (80:20) containing the recovery standards [^2H5]-tryptophan (1 μg/mL) and [^2H3]-N8-acetylspermidine (0.1 μg/mL). Subsequently, lysates were analyzed with liquid chromatography coupled to tandem mass spectrometry (LC-MS).
Data are presented in percentage of respective controls (which were set to 100%) or in pmol × mg protein^–1 × min^–1 for concentration-dependent transport as mean ± SEM. All results were normalized to the mean protein concentrations of the cell lysates in the respective control experiments.

In the case of `NCCc1ccc(O)cc1` [Tyramine, tyramine], in the data set with human OCT2 and MATE1, the “Intracellular concentration in MDCK-OCT2-MATE1 cells vs MDCK-VC cells” value (“Intracellular concentration … vs MDCK-VC cells” for short) was “no significant difference”. Besides, the “Uptake ratio in HEK-OAT3 cells compared to HEK-VC cells” value at human OAT3 (10 μM substrate, 5 minutes) is given as 230%. The “Uptake ratio for OAT3 (HEK-OAT3 vs HEK-VC)” value at human OAT3 (5 minutes) is listed as “above 2 fold”. The “In Vitro OAT3 (substrate class)” value on human OAT3 is 0 (significant uptake in HEK cells, but less than 300% of respective control cells or significant reduction of transcellular transport in Caco-2 cells, but reduction not below 50% of respective control without valspodar). The “Intracellular concentration in MDCK-OCT2 cells in comparison to MDCK-VC cells” value (“Intracellular concentration … to MDCK-VC cells” for short) on human OCT2 is on record as “significantly increased”. Besides, the Renal clearance in data set [1] (healthy volunteers, after oral administration of 400 mg tyramine) is 260 mL/min.

As to `Cn1cnc(CCN)c1` [1-Methylhistamine, 1-methylhistamine], the “Intracellular concentration … vs MDCK-VC cells” value in the data set on human OCT2 and MATE1 was “significantly higher”. Further, the “In Vitro OAT3 (substrate class)” value at human OAT3 is on record as “-”. On MATE1, the “Vmax for MATE1-mediated uptake” value turned out to be 441.4 ± 50.5 pmol*mg protein^-1*min^-1 and the Michaelis constant (Km) at 5 min was found to be 307 ± 88.1 µM. Also, the Mean urinary excretion result in data set [1] (healthy individuals) is on record as “around 120 μg/g creatinine”.

Regarding `C[N+](C)(C)CCCCC(=O)[O-]` [5-Amino valeric acid betaine, 5-amino valeric acid betaine], the “Intracellular concentration … vs MDCK-VC cells” value in the data set with human OCT2 and MATE1 is recorded as “no significant difference”. Also, the “Intracellular background in MDCK-OCT2-MATE1 cells” value in the data set with human OCT2 and MATE1 (setting [2]) is reported as “no 5-amino valeric acid betaine could be detected”. Moreover, on human OAT3, the “In Vitro OAT3 (substrate class)” value is reported as “-”. Moreover, at human OCT2, the “Intracellular concentration … to MDCK-VC cells” value is listed as “significantly increased”. The “Intracellular background in MDCK-OCT2 cells vs MDCK-VC cells” value on human OCT2 (setting [2]) is reported as “much lower”.

Consider `NCCc1c[nH]c2ccc(O)cc12` [Serotonin, serotonin], for which the Michaelis-Menten constant (Km) in the data set with OCT2 was 539 µM. The “Intracellular concentration … vs MDCK-VC cells” value with human OCT2 and MATE1 is given as “significantly higher”. Further, at human OAT3 (100 μM substrate, 5 minutes), the “Uptake ratio in HEK-OAT3 cells compared to HEK-VC cells” value is 186%. Moreover, the “In Vitro OAT3 (substrate class)” value on human OAT3 was 0 (significant uptake in HEK cells, but less than 300% of respective control cells or significant reduction of transcellular transport in Caco-2 cells, but reduction not below 50% of respective control without valspodar). In addition, the “Intracellular concentration … to MDCK-VC cells” value on human OCT2 is recorded as “significantly increased”. Further, on MATE1, the “Vmax for MATE1-mediated uptake” value worked out at 154.3 ± 7.3 pmol*mg protein^-1*min^-1 and the Km at 5 min was determined as 52.7 ± 10.9 µM. The Urinary excretion in data set [1] (healthy subjects) was 0.21 ± 0.08 nmol/mL/mg creatinine.
